Here are results for two compounds from patent US20240123079A1 (Seagen Inc., priority 2021, published 2024).

The data set concerns human cancer cell lines. Briefly: Cancer cell direct cytotoxicity assay, panel statement. It is filed as cell-based. As to conditions: panel of human cancer cell lines. As to the method:
Bystander activity of ADCs was evaluated using Renca cancer cells and THP1-Dual™ cells (InvivoGen) which contain an IRF-Lucia luciferase reporter. Cells were cultured in RPMI-1640 (Gibco) with 10% heat-inactivated fetal bovine serum, Pen-Strep (100 U/ml-100 μg/ml, Gibco), HEPES (10 mM, Gibco), sodium pyruvate (1 mM, Gibco), MEM non-essential amino acids (1×, Gibco), GlutaMAX (1×, Gibco), and beta-mercaptoethanol (55 μM, Gibco). Renca cells were plated in a 96-well flat bottom tissue culture-treated clear polystyrene plate (Corning Costar #3596) at 50,000 cells per well in 100 μL. On the day following the initial plating, 50,000 THP1-Dual™ cells were added to each well with the indicated concentration of ADC in a total volume of 200 μL. Supernatant was harvested at 48 hours post addition of the THP1-Dual™ cells. To measure Lucia reporter signal, 10 μL of supernatant was combined with 40 μL of QUANTI-Luc™ Luminescence assay reagent (Invivogen PN: rep-qlc1) in a 96-well clear flat bottom tissue culture-treated black polystyrene plate (Corning Costar PN: 3603) and read on a Perkin Elmer Envision plate reader. In some experiments, HEK 293T cells engineered to express a murine protein typically expressed by immune cells (target antigen C— an immune cell antigen) were plated as above instead of Renca tumor cells. Cancer Cell Direct Cytotoxicity Assay
Cancer cells were counted and plated in 40 μL complete growth media in 384-well, white-walled tissue culture treated plates (Corning). Cell plates were incubated at 37° C. and with 5% CO2 overnight to allow the cells to equilibrate. […] The luminescence of the samples was measured using an EnVision Multimode plate reader (Perkin Elmer, Waltham, MA). […]
Compound 12a was conjugated to both targeted and non-binding antibodies using a variety of non-cleavable linkers (12, 17, 19-24) and the resulting ADCs were assessed for their ability to activate THP1-Dual™ reporter cells. […] We also evaluated the ability of these linkers to directly kill cancer cells when conjugated to targeted mAbs binding tumor antigen A or antigen B (CD30).

SMILES strings stand for the structures.

For `CCn1nc(C)cc1C(=O)Nc1nc2cc(C(N)=O)cc(OC)c2n1C/C=C/Cn1c(NC(=O)c2cc(C)nn2CC)nc2cc(C(N)=O)cc(OCCCNC)c21` [Compound 12a], the “direct cytotoxic activity on cancer cell lines” value is “demonstrated direct cytotoxic activity on a subset of cancer cell lines”. The entry for `CCn1nc(C)cc1C(=O)Nc1nc2cc(C(N)=O)cc(O)c2n1C/C=C/Cn1c(NC(=O)c2cc(C)nn2CC)nc2cc(C(N)=O)cc(OC)c21` [Compound 1, (E)-1-(4-(5-carbamoyl-2-(1-ethyl-3-methyl-1H-pyrazole-5-carboxamido)-7-hydroxy-1H-benzo[d]imidazol-1-yl)but-2-en-1-yl)-2-(1-ethyl-3-methyl-1H-pyrazole-5-carboxamido)-7-methoxy-1H-benzo[d]imidazole-5-carboxamide] is “demonstrated direct cytotoxic activity on a subset of cancer cell lines”.
